# According to the supplement of paper PMC6045584:
# ± gives the standard deviation of the averaged measurements.
# Experiments:
# SNX-5422 = compound: CC1(C)CC(=O)c2c(C(F)(F)F)nn(-c3ccc(C(N)=O)c(N[C@H]4CC[C@H](OC(=O)CN)CC4)c3)c2C1 [SNX-5422]; experiment: area under dose-response curve of surviving fraction (unscaled, Aref=0) (surviving fraction x log10(nM)); higher = more resistant; settings: exposure time: 5 days; dose range 0.5-1000 nM
# In short: (§1)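 Three screens per tumour cell line were run in 384-well plates at eight inhibitor concentrations from 0.5 to 1000 nM over five days. Surviving fractions, from CellTiter-Glo luminescence normalised to DMSO-only wells, were fitted with 3-parameter logistic curves in the drc R package. The reported area under the curve is the unscaled activity area. It spans log10 dose, and Aref is 0.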
# BI-2536 = compound: CC[C@@H]1C(=O)N(C)c2cnc(Nc3ccc(C(=O)NC4CCN(C)CC4)cc3OC)nc2N1C1CCCC1 [BI-2536]; experiment: as above; settings: exposure time: 5 days; dose range 0.5-1000 nM
# In short: as §1
# SAPACITABINE [1] = compound: T1, CCCCCCCCCCCCCCCC(=O)Nc1ccn([C@@H]2O[C@H](CO)[C@@H](O)[C@@H]2C#N)c(=O)n1 [SAPACITABINE]; experiment: as above; settings: exposure time: 5 days; dose range 0.5-1000 nM
# In short: as §1
# [2] = compound: Cn1cc(C2=Nc3cc(NC(=O)C(N)C4CCCCC4)cc4c3C2=CNNC4=O)cn1; experiment: as above; settings: exposure time: 5 days; dose range 0.5-1000 nM
# In short: as §1
# CANERTINIB = compound: C=CC(=O)Nc1cc2c(Nc3ccc(F)c(Cl)c3)ncnc2cc1OCCCN1CCOCC1 [CANERTINIB]; experiment: as above; settings: exposure time: 5 days; dose range 0.5-1000 nM
# In short: as §1
# TIOGUANINE = compound: Nc1nc2[nH]cnc2c(=S)[nH]1 [TIOGUANINE]; experiment: as above; settings: exposure time: 5 days; dose range 0.5-1000 nM
# In short: as §1
# MDV3100 = compound: CNC(=O)c1ccc(N2C(=S)N(c3ccc(C#N)c(C(F)(F)F)c3)C(=O)C2(C)C)cc1F [MDV3100]; experiment: as above; settings: exposure time: 5 days; dose range 0.5-1000 nM
# In short: as §1
# AFATINIB = compound: CN(C)C/C=C/C(=O)Nc1cc2c(Nc3ccc(F)c(Cl)c3)ncnc2cc1O[C@H]1CCOC1 [AFATINIB]; experiment: as above; settings: exposure time: 5 days; dose range 0.5-1000 nM
# In short: as §1
# SAPACITABINE [3] = compound: T1, SAPACITABINE; experiment: surviving fraction relative to DMSO-only wells; higher = less growth inhibition; settings: exposure time: 5 days
# In short: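 Tumour cell lines in log phase were plated in 384-well plates at 250–500 cells per well, then, after 24 hours, exposed continuously for five days to inhibitors at 0.5, 1, 5, 10, 50, 100, 500 and 1000 nM. Viability came from CellTiter-Glo luminescence, and surviving fraction is that signal normalised to the median of DMSO-only wells. Plates were read after 10 minutes at room temperature, and each line, screened three times, was kept only when replicate Pearson r was >0.7 and median Z' was >0.3.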
Test System,area under dose-response curve (SNX-5422),area under dose-response curve (BI-2536),area under dose-response curve (SAPACITABINE [1]),area under dose-response curve [2],area under dose-response curve (CANERTINIB),area under dose-response curve (TIOGUANINE),area under dose-response curve (MDV3100),area under dose-response curve (AFATINIB),surviving fraction (SAPACITABINE [3]; 0.5 nM),surviving fraction (SAPACITABINE [3]; 1 nM),surviving fraction (SAPACITABINE [3]; 5 nM),surviving fraction (SAPACITABINE [3]; 10 nM),surviving fraction (SAPACITABINE [3]; 50 nM),surviving fraction (SAPACITABINE [3]; 100 nM),surviving fraction (SAPACITABINE [3]; 500 nM),surviving fraction (SAPACITABINE [3]; 1000 nM)
HCC1395 BREAST,3.15,2.69,2.91,2.62,3.33,3.56,3.87,3.5,0.861 ± 0.028,0.828 ± 0.045,0.949 ± 0.035,0.877 ± 0.04,0.935 ± 0.14,0.889 ± 0.028,0.808 ± 0.16,0.715 ± 0.15
YAMATO SYNOVIAL,2.53,1.27,1.68,2.58,3.14,4.3,2.85,4.09,0.776 ± 0.044,0.446 ± 0.029,0.684 ± 0.053,0.11 ± 0.0083,1.04 ± 0.062,0.511 ± 0.021,0.402 ± 0.01,0.0903 ± 0.0049
CAL72 BONE,2.02,0.831,2.07,2.58,–,3.66,3.36,3.5,0.986 ± 0.07,0.951 ± 0.041,0.91 ± 0.058,0.798 ± 0.13,0.559 ± 0.049,0.369 ± 0.12,0.181 ± 0.039,0.128 ± 0.027
93VU HEADNECK,2.18,1.49,2.69,3.08,2.56,3.19,3.11,1.9,0.75 ± 0.041,0.764 ± 0.051,0.862 ± 0.059,0.849 ± 0.16,1.02 ± 0.026,0.927 ± 0.049,0.74 ± 0.086,0.611 ± 0.017
MCF7 BREAST,2.3,1.8,2.58,2.85,2.76,2.83,2.89,3.17,0.826 ± 0.037,0.803 ± 0.02,0.807 ± 0.015,0.716 ± 0.022,0.923 ± 0.028,0.833 ± 0.046,0.705 ± 0.033,0.538 ± 0.0081
S68 BREAST,1.76,1.03,1.85,2.05,2.53,3.32,3.58,2.48,0.821 ± 0.029,0.642 ± 0.021,0.675 ± 0.066,0.617 ± 0.094,0.64 ± 0.22,0.462 ± 0.039,0.296 ± 0.032,0.284 ± 0.02
RDES SOFT TISSUE,2.11,1.09,2.34,2.71,2.83,–,3.91,3.88,0.706 ± 0.16,0.765 ± 0.047,0.717 ± 0.13,0.629 ± 0.12,0.919 ± 0.073,0.984 ± 0.034,0.779 ± 0.15,0.117 ± 0.052
MDAMB134 BREAST,2.8,2.89,2.57,2.44,2.36,3.2,–,3.16,0.689 ± 0.09,0.627 ± 0.083,0.65 ± 0.046,0.7515 ± 0.0035,0.785 ± 0.036,0.821 ± 0.11,0.817 ± 0.058,0.916 ± 0.054
LNCAP PROSTATE,1.64,0.892,2.15,3.06,–,3.21,3.01,3.17,1.04 ± 0.033,1.09 ± 0.059,0.998 ± 0.053,0.913 ± 0.031,0.51 ± 0.012,0.329 ± 0.035,0.208 ± 0.014,0.159 ± 0.012
143B BONE,2.02,0.815,–,2.8,–,3.27,–,3.29,1.03 ± 0.067,1.05 ± 0.029,1.08 ± 0.069,1.06 ± 0.03,1.08 ± 0.047,1.12 ± 0.098,1.05 ± 0.079,0.942 ± 0.05
SUM149.B1*.S BREAST,2.31,2,1.89,3.05,3,3.25,2.91,–,0.918 ± 0.067,0.792 ± 0.011,0.888 ± 0.01,0.455 ± 0.022,0.839 ± 0.023,0.567 ± 0.066,0.281 ± 0.022,0.428 ± 0.022
C33A CERVIX,1.96,0.996,2.35,2.75,–,2.8,3.15,2.23,1.09 ± 0.078,0.987 ± 0.071,1.12 ± 0.026,0.981 ± 0.059,0.711 ± 0.08,0.457 ± 0.029,0.214 ± 0.024,0.142 ± 0.021
BT20 BREAST,2.46,0.663,1.76,3.17,2.52,3.43,3.5,–,0.764 ± 0.042,0.743 ± 0.021,0.679 ± 0.051,0.633 ± 0.11,0.515 ± 0.028,0.396 ± 0.025,0.211 ± 0.023,0.281 ± 0.051
SCC90 HEADNECK,1.96,0.697,3.07,2.53,2.13,3.22,–,1.7,0.88 ± 0.089,0.794 ± 0.074,0.862 ± 0.011,0.848 ± 0.053,1.06 ± 0.13,0.953 ± 0.087,0.853 ± 0.015,0.999 ± 0.064
HCT15 LARGE INTESTINE,2.24,1.88,1.34,3.4,2.73,–,2.75,3.26,0.76 ± 0.048,0.693 ± 0.056,0.713 ± 0.064,0.298 ± 0.063,0.458 ± 0.074,0.143 ± 0.021,0.141 ± 0.013,0.0447 ± 0.0085
H23 LUNG,2.03,1.66,2.6,–,1.77,3.25,3.13,1.57,0.891 ± 0.02,0.894 ± 0.025,0.916 ± 0.028,0.924 ± 0.015,0.868 ± 0.051,0.668 ± 0.024,0.301 ± 0.013,0.264 ± 0.014
SCC47 HEADNECK,2.08,1.87,3.12,–,2.83,2.97,3.22,2.35,0.937 ± 0.093,0.939 ± 0.063,0.982 ± 0.063,0.948 ± 0.072,1.05 ± 0.057,0.988 ± 0.079,0.71 ± 0.033,0.597 ± 0.0027
SG31 HEADNECK,2.1,2.2,2.62,2.91,2.3,–,3.39,2.04,0.933 ± 0.053,0.946 ± 0.043,0.814 ± 0.079,0.464 ± 0.015,0.919 ± 0.071,0.947 ± 0.16,0.792 ± 0.072,0.642 ± 0.033
